{
  "source": "patent US4260745A",
  "about": "“3-Halo cephalosporins” (Eli Lilly and Company, priority 1979, dated 1981)",
  "assay": "bioautogram",
  "type": "cell-based",
  "description": "To 110 ml. of methanol and 83 mg. of pre-reduced 5 percent palladium on carbon were added 83 mg. of p-nitrobenzyl 7-[2-(2-thienyl)acetamido]-3-fluoro-3-cephem-4-carboxylate. The mixture was hydrogenated at 53 psig. for one hour. The resulting mixture was filtered, the filtered catalyst was washed with methanol, and the methanol washings were added to the filtrate. The filtrate was then evaporated in vacuo. The residue was dissolved in ethyl acetate, and the ethyl acetate solution was extracted with dilute aqueous sodium bicarbonate. The sodium bicarbonate solution was washed with ethyl acetate, layered with ethyl acetate, and dilute aqueous HCl was added.",
  "data": [
    {"smiles": "O=C(Cc1cccs1)NC1C(=O)N2C(C(=O)O)=C(F)CS[C@H]12", "note": "(stereo partly shown) [7-[2-(2-Thienyl)acetamido]-3-fluoro-3-cephem-4-carboxylic acid]", "values": [
      {"measurement": "biological activity by bioautogram", "value": "biologically active"}
    ]}
  ]
}
